The source of these data is US6149937A, “Liposome encapsulated amphiphilic drug compositions” (priority 1996, dated 2000).

Where two headings read alike, the source gives them in different places. *1 amine or outer side, *2 acyl side, *3 side chain or, on linkers, in order; H or OH if unused. Where a SMILES comes first, the peptide text is derived from it. Bridges are numbered along the chain shown (N, C = ends). Roman numbers before positions name the chains, in order. [ ]: non-standard residue; d: D form. Actinocin(9to1) = Cc1c2oc3c(C)ccc(C(=O)[*:1])c3nc-2c(C(=O)[*:2])c(N)c1=O; NMeV = CN[CH](C(=O)O)C(C)C; Sar = CNCC(=O)O

For data set [1] the following is noted: cited from earlier work.
The conditions of data set [2]: cited from earlier work. This is another data set of the same source.
A short description of data set [3]: Entrapment of BP^+ into MLVs. Format: physicochemical. Particulars: for encapsulation efficiency: EPC/BP^+ 6, pH 6.5. The method, then: The bupivacaine concentration was measured by UV spectrophotometry at 271.6 nm. After extraction of BP^+ in chloroform with EPC, 27.5 mg of cholesterol were added thereto. After evaporation of the organic solvent under an inert atmosphere and drying of the lipid film, hydration was carried out at pH 6.5. The encapsulation efficiency was measured by UV spectrophotometry at 271.6 nm.

The conditions of data set [4]: not told.
Data set [5] can be described thus: Crystals in liposomal BP^0 formulations. Format: physicochemical. How it is done: These films were hydrated by 1 ml buffer at pH 8.1 and suspended as MLVs with bupivacaine crystals inside and outside the phospholipid […] by freeze-etching electron microscopy. […] This film was suspended as MLVs in 1 ml buffer pH 8.1. […] No crystals were detected from the ratio 17 and above (Table VII).

For data set [6] the following is noted: cited from earlier work; for animal or human results of liposome association: lipid-layer encapsulated.
The nature of data set [7]: Release of bupivacaine from the liposomal BP^0 formulation at pH 7.4. Format: physicochemical.
Data set [8] is described as follows: Rate of release of BP^+ from MLVs at pH 7.4. Format: physicochemical. How it is done:
A further preparation of liposomal BP^+ pH 6.5 prepared as described above was inserted into a dialysis bag (5 ml containing 353.25 mg EPC and 25 mg BP^+). The bag was immersed in 145 ml PBS pH 7.4 with a renewal rate of 23 ml/hour. Samples of the pH 7.4 medium were harvested at different times and the concentration of bupivacaine was measured by UV spectrophotometry.

Data set [9] is described as follows: MP^0 release from MLVs (dialysis bag, PBS pH 7.4). Format: physicochemical.
The conditions of data set [10]: pH 7.4, 37° C.
A short description of data set [11]: Entrapment of MP^+ into MLVs. Format: physicochemical. Particulars: EPC/morphine 98, pH 4.5, n=5, referred to 1 mg initially dissolved.
The conditions of data set [12]: 10 ml PBS pH 7.4.
The conditions of data set [13]: EPC/oxine 4.8, pH 7.4.
The next data set relates to bacteria. The settings on record: References 30-33; listed as oxine; cited from earlier work.
For data set [14] the following is noted: cited from earlier work. The source holds these as a separate data set.
For data set [15] the following is noted: pH 7.8.
Test in data set [16]: not given
This is another data set of the same source.

The conditions of data set [17]: cited from earlier work. The source holds these as a separate data set.
Test in data set [18]: not given
The source holds these as a separate data set.

Data set [19] can be described thus: Release of tin(II) dioxinate from MLVs at pH 7.4. Format: physicochemical.
A short description of data set [20]: Cell membrane permeation predicted by TAMMO combined with liposomal entrapment and release assays. Particulars: concluded from TAMMO and liposome assays.
A short description of data set [21]: Entrapment of tin(II) dioxinate into MLVs. Format: physicochemical. The method, then: Egg yolk phosphatidylcholine (14.4 mg, 18.3 μmol) and cholesterol (5.6 mg, 13.7 μmol) were dissolved in chloroform with 0.1, 0.2, 0.3, 0.4, 0.5 mg (1.2 μmol) and 0.6 mg tin(II) dioxinate. After evaporation of the solvent, hydration occurred with NaCl 150 mM 1 ml. The MLVs thus prepared were washed 5 times in order to discard free tin(II) dioxinate.
The number of tin(II) dioxinate molecules inserted into liposomes increased with the number of SnOx2 molecules present in the preliposomal lipid film. Liposomal saturation occurred for a number of moles averaging 1.23 μmoles SnOx2 inserted into 18.3 μmoles EPC (EPC/SnOx2 mole ratio of 15) with an encapsulation efficiency of 30% for MLVs.

[22] abbreviates: formulation with crystals, pH 7.4.

In the case of `CN1CC[C@]23c4c5ccc(O)c4O[C@H]2[C@@H](O)C=C[C@H]3[C@H]1C5` [Morphine, morphine], in data set [1] (intramuscular, epidural or intrathecal), the duration of action is no less than 12 h.
On to `CCCN(CC)C(CC)C(=O)Nc1c(C)cccc1C` (centres unmarked) [Etidocaine, etidocaine], for which the “Log Poct” value in [2] (octanol/water) is reported as 2.1.
For `CCN(CC)CCOC(=O)c1ccc(N)cc1` [Procaine, procaine], the “Log Poct” value in data set [2] (octanol/water) was -1.7.
`CCN(CC)CCOC(=O)c1ccc(N)cc1Cl` [Chlorprocaine, chlorprocaine]: the “Log Poct” value in data set [2] (Table II) is given as -0.8.
In the case of `CCCCN1CCCCC1C(=O)Nc1c(C)cccc1C` (centres unmarked) [BP^0], in data set [3] (Table III, PL/X 5), the “AE (encapsulation efficiency)” value is given as 75%. The encapsulation efficiency in data set [3] (after 2 hours) is on record as 60±1%; in data set [3] (after 24 hours), 74±0.5%. Moreover, the “BP^+ inserted into MLVs” value in data set [3] (from 5 mg BP^+, 70.65 mg EPC) is on record as 3.7 mg. For the same molecule, the “ability to cross cell membranes” value in data set [4] is listed as “able to cross cell membranes”. The “Crystals” value in data set [5] (EPC/BP ratio 17 and above) is “No crystals”; in data set [5] (EPC/BP ratio up to 16) it was “presence of bupivacaine crystals”; in data set [5] (EPC/BP^0 ratio 13 or above) it was “without crystals”; in data set [5] (EPC/BP^0 ratio 17) it was 0; in data set [5] (EPC/BP^0 ratio 20) it was 0; in [5] (EPC/BP^0 ratio 22) it was 0. Also, the Crystals in data set [5] (EPC/BP^0 ratio 25) worked out at 0. For the same molecule, the “sensory block” value in data set [6] (BP^+ in liposomal aqueous phase, Reference 13) is “prolongation of the sensory block”. Also, the “motor block” value in data set [6] (BP^+ in liposomal aqueous phase, Reference 29) is given as “outlasted the analgesic action”. Also, the Release in data set [7] (Table III, PL/X 5) is 24 to 48 h; in [8] (Table III, PL/X 5), 72 h. In addition, the “release compared with crystal-containing formulation” value in data set [7] (crystal-free) was “slower”. The molecule further came in with a peak concentration in [7] (crystal-free, 230.56 mg EPC, 5 mg BP^0, pH 7.4) of 5 to 8 µg/mL. Besides, the “time to complete clearance” value in data set [7] (crystal-free, pH 7.4) was determined as 3 days. In data set [7] (crystal-free, pH 7.4), this molecule registered a time to peak of 6 h. The maximal concentration in [7] (formulation with crystals, 14.4 mg EPC, 5 mg BP^0, pH 7.4, 37° C.) lay within 7 to 8 µg/mL. Besides, the “time to maximal concentration” value is 6 to 12 h in data set [7] (setting [22]) and 6 to 12 h in [8] (1 ml formulation, pH 7.4). Moreover, the “time to release of the whole amount” value in [7] (setting [22]) was 2 days. The duration of release in data set [8] (1 ml formulation, pH 7.4) was 24 to 48 h; in [8] (5 ml formulation in dialysis bag, pH 7.4), 72 h. In addition, in data set [8] (6 hour, 5 ml in dialysis bag, pH 7.4), the “rapid transfer of unencapsulated bupivacaine” value is recorded as 25%.
Take `CN1CC[C@]23c4c5ccc(O)c4O[C@H]2[C@@H](O)C=C[C@H]3[C@H]1C5` [MP^0]: the “crystals in the dialysis bag at the end of release” value in data set [9] (EPC/MP^0 10) was “No crystals”. Further, the “Release” value in data set [9] (EPC/MP^0 10, 26 and 52) was “sustained and prolonged”; in data set [9] (Table III, PL/X 10), 48 h; in [9] (Table III, PL/X 26), 30 h; in [9] (Table III, PL/X 52), 24 h. Besides, the duration of release in data set [9] (EPC/MP^0 10, pH 7.4) worked out at 48 h; in data set [9] (EPC/MP^0 26, pH 7.4), 30 h; in [9] (EPC/MP^0 52, pH 7.4) it was 24 h. In addition, the “duration of slow decrease of concentration” value in data set [10] is 3 days. Moreover, the “time to maximal concentration” value in data set [10] turned out to be 1 h. In data set [11], this molecule yielded an encapsulation of 31.2±2.1%.
Turning to `Oc1cccc2cccnc12` [Oxine, 8-hydroxyquinoline], the “time of release of a bulk of the liposomal compound” value in data set [12] stood at 20 min. Also, the “oxine entrapped in MLVs” value in [13] amounted to 50%; in data set [13] (from 0.7 mg), 0.35 mg. In addition, the partition coefficient octanol/water in data set [2] (not logarithmic) is reported as 67. Besides, the “bactericidal activity (words)” value in the data set with bacteria is reported as “acts as a bactericidal agent by crossing the bacterial cell membrane”.
Turning to `CCCNC(C)C(=O)Nc1ccccc1C` (centres unmarked) [Prilocaine, prilocaine], the “Log Poct” value in data set [2] (Table II) is reported as -0.05.
Consider `Cc1cccc(C)c1NC(=O)C1CCCCN1C` (centres unmarked) [Mepivacaine, mepivacaine], for which, in data set [14] (Table II), the pKs is given as 7.76. In addition, the “Log Poct” value in [2] (octanol/water) is on record as -0.1.
Take `Cc1c2oc3c(C)ccc(C(=O)NC4C(=O)NC(C(C)C)C(=O)N5CCCC5C(=O)N(C)CC(=O)N(C)C(C(C)C)C(=O)OC4C)c3nc-2c(C(=O)NC2C(=O)NC(C(C)C)C(=O)N3CCCC3C(=O)N(C)CC(=O)N(C)C(C(C)C)C(=O)OC2C)c(N)c1=O` (centres unmarked) [actinomycin D] (I: TVP[Sar][NMeV] / II: TVP[Sar][NMeV]; ester I:1-I:C, II:1-II:C; linker I:N-II:N via Actinocin(9to1); configuration not given here): the “animal or human results of liposome association” value in [6] is listed as “promising animal or effective human results”.
For `CCCCN1CCCCC1C(=O)Nc1c(C)cccc1C` (centres unmarked) [Bupivacaine, bupivacaine], in [2] (Table II), the “Log Poct” value is 1.4. For the same molecule, in data set [2] (Table III), the “Log Poct” value was 3.6. Moreover, the “log of the partition coefficient between water and octanol” value in data set [2] (clonidine: octanol/buffer pH 7.4) was 1.8. Besides, in data set [1] (human, in vivo), the “plasma level at which systemic toxicity becomes apparent” value is roughly 1600 ng/mL and the therapeutic concentration was 1 µg/mL. For the same molecule, the “duration of analgesic action” value in [1] (peripheral nerve blocks) is reported as “up to 12 hours”. The “animal or human results of liposome association” value in data set [6] is “promising animal or effective human results”.
On to `CCOC(=O)C1(c2ccccc2)CCN(C)CC1` [Meperidine, meperidine], for which, in data set [2] (octanol/water), the “Log Poct” value is 1.3.
On to `CCCCNc1ccc(C(=O)OCCN(C)C)cc1` [Tetracaine, tetracaine], for which, in [2] (octanol/water), the “Log Poct” value is recorded as 0.6.
Take `Clc1cccc(Cl)c1NC1=NCCN1` [CL^0]: under “Table III, PL/X 5”, the “AE (encapsulation efficiency)” value is 14.5%. For the same molecule, the figures for the proportion of species in data set [15] and in data set [15] (listed as CL^+) were 28.5% and 71.5%, respectively. In addition, the Release in data set [16] (Table III, PL/X 5) stood at 0.5 h.
For `Clc1cccc(Cl)c1N=C1NCCN1` [Clonidine, clonidine], the encapsulation efficiency (14.4 mg EPC, 0.5 mg CL^0, pH 7.8, n=6) is reported as 14.5%±0.4. Further, in [14], the “pK / pKa” value was 8.2. Further, in [2] (octanol/water), the “Log Poct” value is reported as 1.59. Also, the “duration of hypotensive action” value in [1] (human, in vivo) was 1 days. Moreover, the “solubility in organic solvents” value in data set [17] was “soluble in octanol when uncharged”. Also, in data set [17] (water or acidic solution), the “solubility in aqueous medium” value was “highly soluble in acidic solution as a cation”. For the same molecule, the “leakage from vesicles after 1 hour” value in data set [16] (pH 7.4, after 1 hour) is “Almost all”.
For the molecule tin(II) dioxinate, the “limit of solubility in chloroform” value in [18] (chloroform) came to 400 µM; in data set [18] (chloroform with epc), 4100 µM. Also, the Release in data set [19] (Table III, PL/X 6) is greater than 72 h; in [19] (pH 7.4, for at least one week), “no release”. Also, the “ability to cross cell membranes” value in data set [20] is listed as “unable to cross the cell membrane”. Also, the “SnOx2 inserted at liposomal saturation” value in data set [21] (18.3 μmoles EPC) was roughly 1.23 µmol. The “EPC/SnOx2 mole ratio at saturation” value in [21] (MLVs) was 15. Besides, the encapsulation efficiency in data set [21] (MLVs, EPC/SnOx2 15) is listed as 30%. In addition, the “AE (encapsulation efficiency)” value in data set [21] (Table III, PL/X 6) is reported as 30%.
